Experimental data from patent US9944597B2, “Polysubstituted pyrroles having microtubule-disrupting, cytotoxic and antitumor activities and methods of use thereof” (THE BOARD OF REGENTS OF THE UNIVERSITY OF TEXAS SYSTEM, priority 2013, dated 2018).
“Also recorded” adds a separate entry of the source. Like-named read-outs stand apart in the source and are kept apart here.

Experiments:
MDA-MB-435 xenograft = MDA-MB-435 xenograft murine model; type: in vivo
Protocol: The antitumor activity of NT-7-45 was evaluated in the MDA-MB-435 xenograft murine model of cancer. MDA-MB-435 cells were implanted subcutaneously into both flanks of nude mice. Mice were treated periodically with six injections of NT-7-45 i.p. at 75 mg/kg, suspended in a mixture of Tween80, DMSO and PBS.
The antitumor activity of NT-7-16 was evaluated in the MDA-MB-435 xenograft murine model of cancer. MDA-MB-435 cells were implanted subcutaneously into both flanks of nude mice. Mice were treated on days 1, 4, 7, 11, 14, 18, 20 and 22 by injecting NT-7-16 i.p. at 50 mg/kg suspended in a mixture of Tween80, DMSO and PBS. […] As shown in FIG. 5-7, NT-7-16 inhibited tumor growth as compared to vehicle-treated controls in a statistically significant (p<0.05) manner at days 11, 13, 15, 18 and 22.

HeLa cells [1] = test: Mitotic spindles by indirect immunofluorescence; type: cell-based, human; details: 18 h, 15 nM or 25 nM
Protocol: The effects of NT-7-16 on mitotic spindles were evaluated in HeLa cells by indirect immunofluorescence. HeLa cells were treated for 18 h with (A) vehicle (DMSO), (B) 15 nM NT-7-16 or (C) 25 nM NT-7-16. […] These effects are consistent with the actions of other microtubule disrupting agents. The presence of lagging chromosomes is indicated by the arrows and is caused by disruption of normal microtubule dynamics.

A-10 cells [2] = test: Cellular microtubule loss by indirect immunofluorescence; type: cell-based, rat; details: Rattus norvegicus, A10; Table 53; own compounds; read-out: Microtubule Depolymerization EC50
In short: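 Rat embryonic vascular smooth muscle cells were treated across a range of compound concentrations. Microtubules were stained by indirect β-tubulin immunofluorescence, with DAPI for DNA. EC50 is the concentration giving about 50% interphase microtubule loss, scored visually, from curves over at least three experiments.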

HeLa cells [3] = test: Cell cycle distribution by flow cytometry; type: cell-based, human; details: HeLa cells treated for 18 hr; FIG. 3: 25 nM NT-7-16, 12.5 nM paclitaxel
Protocol: The effects of NT-7-16 on cell cycle distribution were determined. […] The cells were stained with Kirshan's reagent (Kirshan, Cell Biol. 66, 188-93 (1975)), and cell cycle distribution was measured using a Millipore Muse flow cytometer.
The effects of NT-7-16 on cell cycle distribution were determined. […] The cells were stained with Kirshan's reagent (Kirshan Cell Biol. 66, 188-93. (1975)), and cell cycle distribution was measured using a Millipore Muse flow cytometer.

[4] = target: T1, purified porcine brain tubulin (Sus scrofa, UniProt P02554); test: Inhibition of polymerization of purified tubulin (absorbance at 340 nm); type: biochemical
T1 construct: of Purified Porcine Brain Tubulin; from tissue; host or cells: porcine brain

[5] = tested on: MDA-MB-435 (human melanoma cancer cells); test: Antiproliferative SRB assay, MDA-MB-435; type: cell-based; details: Homo sapiens, MDA-MB-435; Table 53; own compounds; read-out: MDA-MB-435 Antiproliferative IC50
In short: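 After 24 h attachment, MDA-MB-435 cells were exposed to compounds for 48 h, then fixed with trichloroacetic acid. Cellular protein was quantified by sulforhodamine B staining. IC50 for proliferation inhibition was taken from the linear portion of log concentration–response curves.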

[6] = target: colchicine binding site on tubulin (Sus scrofa, UniProt P02554); test: Colchicine site binding, fluorometric assay
PC-3 xenograft = details: i.p. dosing at relatively high doses, after 14 days of treatment; cited from earlier work
[7] = tested on: variety of cancer cell lines; details: average over a variety of cancer cell lines; read-out: antiproliferative activity, average IC50; cited from earlier work
A-10 cells [8] = details: Table 53; literature data from Da et al. 2013; read-out: Microtubule Depolymerization EC50; cited from earlier work
P-glycoprotein = P-glycoprotein (Homo sapiens, UniProt P08183); details: cited from earlier work
[9] = tested on: MDA-MB-435 (human melanoma cancer cells); details: Table 53; literature data from Da et al. 2013; read-out: MDA-MB-435 Antiproliferative IC50; cited from earlier work

T1 sequence (P02554 whole entry): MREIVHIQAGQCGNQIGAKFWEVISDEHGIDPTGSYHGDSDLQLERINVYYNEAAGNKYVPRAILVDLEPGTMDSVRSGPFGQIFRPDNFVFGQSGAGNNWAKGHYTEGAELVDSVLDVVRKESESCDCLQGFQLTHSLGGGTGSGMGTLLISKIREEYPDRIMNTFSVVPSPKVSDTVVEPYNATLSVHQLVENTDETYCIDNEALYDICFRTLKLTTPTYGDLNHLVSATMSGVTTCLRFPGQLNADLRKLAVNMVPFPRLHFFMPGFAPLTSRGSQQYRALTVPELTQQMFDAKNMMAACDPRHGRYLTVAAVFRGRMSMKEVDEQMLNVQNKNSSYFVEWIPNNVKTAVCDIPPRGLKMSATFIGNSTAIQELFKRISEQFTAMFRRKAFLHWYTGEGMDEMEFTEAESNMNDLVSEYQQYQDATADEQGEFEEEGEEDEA
T1 sequence (P02550 whole entry partner): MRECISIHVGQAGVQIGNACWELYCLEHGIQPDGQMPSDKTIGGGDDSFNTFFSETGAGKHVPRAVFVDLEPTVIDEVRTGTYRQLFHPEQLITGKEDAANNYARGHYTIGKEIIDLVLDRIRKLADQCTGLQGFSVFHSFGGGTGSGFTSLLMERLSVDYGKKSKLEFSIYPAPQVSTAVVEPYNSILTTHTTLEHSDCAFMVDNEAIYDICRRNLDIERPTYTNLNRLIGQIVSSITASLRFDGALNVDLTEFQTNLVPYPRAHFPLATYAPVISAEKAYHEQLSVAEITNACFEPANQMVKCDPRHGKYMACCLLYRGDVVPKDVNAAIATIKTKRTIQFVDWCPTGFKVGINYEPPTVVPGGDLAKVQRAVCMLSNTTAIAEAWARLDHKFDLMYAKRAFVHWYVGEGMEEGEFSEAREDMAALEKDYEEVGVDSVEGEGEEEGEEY
Chain of colchicine binding site on tubulin (P02554 whole entry): as the sequence (P02554 whole entry) above
Chain of colchicine binding site on tubulin (P02550 whole entry partner): as the sequence (P02550 whole entry partner) above
Chain of P-glycoprotein (P08183 whole entry): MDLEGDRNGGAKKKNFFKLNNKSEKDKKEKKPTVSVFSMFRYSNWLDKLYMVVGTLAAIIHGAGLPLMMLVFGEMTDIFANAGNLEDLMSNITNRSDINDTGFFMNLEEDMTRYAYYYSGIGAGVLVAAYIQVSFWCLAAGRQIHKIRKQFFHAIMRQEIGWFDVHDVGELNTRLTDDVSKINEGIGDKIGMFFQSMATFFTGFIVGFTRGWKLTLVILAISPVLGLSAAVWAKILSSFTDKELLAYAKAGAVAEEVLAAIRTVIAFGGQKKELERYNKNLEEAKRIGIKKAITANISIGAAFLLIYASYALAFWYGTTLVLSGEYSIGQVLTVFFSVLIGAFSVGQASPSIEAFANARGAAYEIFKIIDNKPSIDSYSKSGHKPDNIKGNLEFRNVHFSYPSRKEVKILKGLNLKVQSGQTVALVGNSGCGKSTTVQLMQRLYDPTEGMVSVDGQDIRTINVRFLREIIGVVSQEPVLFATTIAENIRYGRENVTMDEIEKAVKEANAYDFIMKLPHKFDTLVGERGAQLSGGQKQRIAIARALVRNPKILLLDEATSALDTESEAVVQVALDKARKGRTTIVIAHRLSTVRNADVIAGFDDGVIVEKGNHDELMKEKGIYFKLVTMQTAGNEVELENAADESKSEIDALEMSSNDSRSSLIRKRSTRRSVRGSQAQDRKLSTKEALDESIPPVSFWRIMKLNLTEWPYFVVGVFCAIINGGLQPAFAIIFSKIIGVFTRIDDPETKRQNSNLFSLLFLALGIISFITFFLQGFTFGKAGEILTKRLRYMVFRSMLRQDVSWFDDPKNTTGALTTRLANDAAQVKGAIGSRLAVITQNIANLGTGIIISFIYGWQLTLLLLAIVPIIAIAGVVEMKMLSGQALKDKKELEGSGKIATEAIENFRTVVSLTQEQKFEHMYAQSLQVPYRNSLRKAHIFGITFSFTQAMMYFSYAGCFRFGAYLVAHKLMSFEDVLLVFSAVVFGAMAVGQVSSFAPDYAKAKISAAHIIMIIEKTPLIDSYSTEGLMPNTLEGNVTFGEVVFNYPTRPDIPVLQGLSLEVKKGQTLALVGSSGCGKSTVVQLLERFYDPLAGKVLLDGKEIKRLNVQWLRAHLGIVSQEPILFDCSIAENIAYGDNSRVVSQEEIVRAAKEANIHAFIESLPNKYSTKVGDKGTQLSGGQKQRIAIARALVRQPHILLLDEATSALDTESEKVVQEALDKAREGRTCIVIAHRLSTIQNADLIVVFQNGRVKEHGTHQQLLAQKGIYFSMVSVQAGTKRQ

Compound | tumor growth in MDA-MB-435 xenograft (MDA-MB-435 xenograft; 50 mg/kg i.p. on days 1, 4, 7, 11, 14, 18, 20, 22, 25-day model) | toxicity in xenograft study (MDA-MB-435 xenograft; 50 mg/kg i.p., eight cumulative doses) | animal body weight (MDA-MB-435 xenograft; 50 mg/kg i.p., over 25 days) | effects on mitotic spindles (HeLa cells [1]) | EC50 (A-10 cells [2]) | cell cycle distribution (HeLa cells [3]) | inhibition of tubulin assembly ([4]; at concentrations of 2-5 μM) | effect on tubulin polymerization (turbidity, FIG. 2, FIG. 10) ([4]; result in words) | IC50 [5] | inhibition at 10 µM ([6]; read-out: inhibition of colchicine binding to tubulin) | effect on colchicine binding (FIG. 9) ([6]; result in words) | reduction in tumor burden (PC-3 xenograft) | IC50 [7] | EC50 (A-10 cells [8]) | substrate for transport by P-glycoprotein (P-glycoprotein) | IC50 [9]
CCOC(=O)c1[nH]c(Br)c(-c2ccc(OC)c(OC)c2OC)c1Br [NT-7-16, 3,5-Dibromo-4-(2,3,4-trimethoxyphenyl)-1H-pyrrole-2-carboxylic acid ethyl ester] | significant antitumor effects; also recorded: prevented tumor growth; also recorded: statistically significant (p<0.05) inhibition of tumor growth | no evidence of toxicity; also recorded: no overt toxicity | no significant change in animal body weight; also recorded: no significant weight loss | aberrant mitotic spindles | 0.345 µM | initiated mitotic accumulation; also recorded: G2/M arrest | almost total inhibition | concentration-dependent inhibition of tubulin assembly; also recorded: inhibits tubulin polymerization | 0.014 ± 0.005 µM | ~80% | concentration dependent inhibition of colchicine binding |  |  |  |  | 
CCOC(=O)c1[nH]c(Br)c(-c2ccc(OC)c(OC)c2)c1Br [JG-03-14, 4-[(3,4-dimethoxy)-phenyl]-3,5-dibromopyrrole 2-carboxylic acid ethyl ester] |  |  |  |  |  |  |  |  |  |  |  | greater than 50% | 0.062 µM | 0.49 µM | poor substrate | 0.036 ± 0.002 µM
